Test results as given in patent US20260022122A1 (Checkmate Therapeutics Inc., priority 2022, published 2026).

Experiments:
NamPT = NamPT (Homo sapiens (Human), UniProt P43490); test: Measurement of NamPT inhibitory ability IC50 (NamPT colorimetric assay kit, Abcam ab221819); assay type: biochemical; settings: NamPT recombinant protein, WST-1 absorbance at 450 nm; class key in μM
Method: To test the effect of the compound prepared in each Example on the substrate decomposition rate (Vmax/min) mediated by NamPT enzyme, IC50 was calculated. In this experiment, the NamPT colorimetric assay kit (ab221819) produced by Abcam was used, and Graph prism software was used for IC50 calculation. PRPP, ATP, NMNAT1, NamPT recombinant proteins, and various concentrations of the compound of each Example (half-log step dilution from 100 μM) were added to nicotinamide to synthesize nicotinamide adenine dinucleotide (NAD) from the nicotinamide, and a total of 60 μL of the reaction solution was reacted at room temperature for 1 hour. WST-1 formazan converted by NAD generated by adding WST-1 was measured. The result of the reaction was obtained by the following formula by measuring absorbance using EnVision2105 (PerkinElmer) at 450 nm for 60 minutes at 2-minute intervals.
In Mathematical Formula 1, T1 and T2 are arbitrary times, and A1 and A2 represent the absorbance measured at T1 and T2 at 450 nm, respectively.
The results of measuring the NamPT inhibition activity of the compound of each Example obtained through the above experiment are shown in Table 1 in the unit of IC50 (nM), and the result values are expressed as follows.

[1] = tested on: NAPRT negative lung cancer cell lines (H322, H661, H1155); test: Proliferation inhibition on NAPRT negative lung cancer cell lines (CellTiter-Glo); assay type: cell-based; settings: 72 hours
Method: (§1) A compound showing a low IC50 value was selected from the compounds of the above Examples and treated an NAPRT positive or negative lung cancer cell line with various concentrations, and then the change in cell viability for each cell line was measured. The results are presented in a graph (a few materials known as NamPT inhibitors were used as controls). A total of 9 cancer cells lines (three NAPRT negative cell lines: H322, H661, and H1155; and six NAPRT positive cell lines: H1993, H2122, H2030, H1975, H1299, and HBEC30) were used. 5% fetal bovine serum (Gibco, US) and 1% penicillin/streptomycin (Gibco) were added to a medium, and the cells were cultured in a 37° C. constant temperature incubator containing 5% CO2. For compound treatment, each type of cells were seeded at 3×10^3 cells/well in a 96-well plate (Corning) and then incubated in a 37° C. constant temperature incubator containing 5% CO2 for 18 hours. […] Afterwards, the cells were cultured in an incubator containing 5% CO2 at 37° C. for 72 hours. To confirm the effect of inhibiting the proliferation of cancer cells, a CellTiter-Glo Luminescent Cell Viability Assay (Promega) was used. After treating the cells with 10 μL of CellTiter-Glo luciferase reagent and leaving them for 15 minutes at room temperature, the luminescence of each well was measured using EnVision2105 (PerkinElmer). The change in cell viability by the compound diluted at the concentration of each step was converted into a relative % value for the amount of luminescence shown by DMSO treatment. EC50 is expressed as the concentration of each compound that induces 50% of the maximum luminescence level.
(§2) The results of measuring the proliferation inhibition ability of the compound of each Example on nine types of lung cancer cell lines, obtained through the above experiment, are shown in Table 2 in the unit of EC50 (μM). The resulting values are expressed as follows.

[2] = tested on: NAPRT positive cell lines (H1993, H2122, H2030, H1975, H1299, HBEC30); test: Proliferation inhibition on NAPRT positive lung cancer cell lines (CellTiter-Glo); assay type: cell-based; settings: 72 hours
Method: as §1, §2

[3] = tested on: NAPRT-negative gastric cancer cell line HGC27; test: NAPRT-negative cancer cell xenograft model (% tumor growth inhibition); assay type: in vivo; settings: 50 mg/kg, orally once a day from day 1 to day 21, HGC27 xenograft in BALB/c nude mice
Text: Based on the effect of inhibiting proliferation limited to NAPRT-negative cancer cell lines according to the experiment of the proliferation inhibitory effect (EC50) on NAPRT-negative cancer cell lines, the pharmacological effect in a xenograft model using NAPRT-negative cancer cell lines was verified. Five-week-old female BALB/c nude mice were purchased and used in the experiment after acclimation for one week. The cancer cells used in the experiment were a NAPRT-negative gastric cancer cell line HGC27, and cultured in […] medium (Gibco) to which 5% Fetal Bovine Serum (Gibco, US) and 1% penicillin/streptomycin (Gibco) were added. HGC27 was suspended in PBS (Welgene) and transplanted to have 5×10^6 cells into each mouse. After adding Matrigel in the same value, tumors were induced by subcutaneous injection into the right flank using a 1 mL syringe. After 3 weeks of breeding, when the average tumor size was 100 to 150 mm^3, mice were randomly divided into groups of 7 and administered each compound. The compound was prepared in an excipient (0.5% DMSO/2% Tween 80/20% PEG 400/20% b-HPCD in 77.5% DW) as an agent for oral administration, and administered orally once a day from day 1 to day 21 to the mouse model in which a tumor was generated. From day 1 to day 21, the body weight was measured once daily, and the tumor size was measured three times a week. The tumor size was measured using a caliper and calculated using the following formula.
In Mathematical Formula 2, W is a length, and d is a width.
On day 21, all animals were euthanized, blood samples were collected, and tumors were removed. To evaluate blood toxicity, blood was collected from an EDTA-containing blood collection tube, and subjected to a general blood test (complete blood count, CBC) and a blood biochemical test. Isolated tumors were weighed after photographing and a portion was used to measure NAD to verify the on-target efficacy of the compound. To measure NAD, a NAD/NADH Quantitation Colorimetric Kit (K337) produced by BioVision was used.
The pharmacological effect of each compound in the NAPRT-negative cancer cell xenograft models, obtained in this experiment, is shown in Table 3 in the unit of % TGI (tumor growth inhibition).

Chain of NamPT (P43490 whole entry): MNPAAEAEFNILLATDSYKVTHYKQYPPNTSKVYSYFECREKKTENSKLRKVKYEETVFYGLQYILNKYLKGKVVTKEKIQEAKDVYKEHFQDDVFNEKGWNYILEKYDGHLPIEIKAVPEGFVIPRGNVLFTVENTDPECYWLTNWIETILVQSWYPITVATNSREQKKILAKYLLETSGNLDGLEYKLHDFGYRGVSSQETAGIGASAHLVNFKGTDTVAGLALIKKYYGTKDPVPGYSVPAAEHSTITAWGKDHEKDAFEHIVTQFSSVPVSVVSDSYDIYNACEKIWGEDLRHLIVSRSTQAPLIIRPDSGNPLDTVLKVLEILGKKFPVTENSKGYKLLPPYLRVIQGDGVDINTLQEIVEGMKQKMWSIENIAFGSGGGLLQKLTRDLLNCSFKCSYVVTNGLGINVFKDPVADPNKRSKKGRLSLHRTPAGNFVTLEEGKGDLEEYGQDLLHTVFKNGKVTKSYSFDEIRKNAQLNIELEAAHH

| Compound | IC50 (NamPT) | EC50 [1] | EC50 [2] | % TGI (Tumor Growth inhibition) [3] |
| --- | --- | --- | --- | --- |
| O=C(NCc1ccc(-c2nc3ccccc3o2)cc1)c1cnc2nccn2c1 [Example 2, N-[[4-(1,3-benzoxazol-2-yl)phenyl]methyl]imidazo[1,2-a]pyrimidin-6-carboxamide] | 0.051 to 0.1 µM | < 0.05 µM | > 101 µM |  |
| CS(=O)(=O)c1ccc2oc(-c3ccc(CNC(=O)c4cnc5nccn5c4)cc3)nc2c1 [Example 9, N-[[4-(5-methylsulfonyl-1,3-benzoxazol-2-yl)phenyl]methyl]imidazo[1,2-a]pyrimidin-6-carboxamide] | < 0.05 µM | < 0.05 µM | > 101 µM |  |
| COc1ccc2nc(-c3ccc(CNC(=O)c4cnc5nccn5c4)cc3)oc2c1 [Example 22, N-[[4-(6-methoxy-1,3-benzoxazol-2-yl)phenyl]methyl]imidazo[1,2-a]pyrimidin-6-carboxamide] | < 0.05 µM | 0.051 to 0.1 µM | > 101 µM |  |
| O=C(NCc1ccc(-c2nc3cc(C(=O)N4CCC4)ccc3o2)cc1)c1cnc2nccn2c1 [Example 33, N-[[4-[5-(azetidin-1-carbonyl)-1,3-benzoxazol-2-yl]phenyl]methyl]imidazo[1,2-a]pyrimidin-6-carboxamide] | < 0.05 µM | < 0.05 µM | > 101 µM |  |
| O=C(NCc1ccc(-c2nc3cc(C(=O)N4CCCC4)ccc3o2)cc1)c1cnc2nccn2c1 [Example 34, N-[[4-[5-(pyrrolidine-1-carbonyl)-1,3-benzoxazol-2-yl]phenyl]methyl]imidazo[1,2-a]pyrimidin-6-carboxamide] | < 0.05 µM | < 0.05 µM | 10 to 100 µM |  |
| O=C(NCc1ccc(-c2nc3cc(S(=O)(=O)c4ccccc4)ccc3o2)cc1)c1cnc2nccn2c1 [Example 38, N-[[4-[5-(benzenesulfonyl)-1,3-benzoxazol-2-yl]phenyl]methy]imidazo[1,2-a]pyrimidin-6-carboxamide] | < 0.05 µM | 0.051 to 0.1 µM | > 101 µM |  |
| O=C(NCc1ccc(-c2nc3cc(-c4ccccc4)ccc3o2)cc1)c1cnc2nccn2c1 [Example 56, N-[[4-(5-phenyl-1,3-benzoxazol-2-yl)phenyl]methyl]imidazo[1,2-a]pyrimidin-6-carboxamide] | 0.11 to 1 µM |  |  |  |
| O=C(NCc1ccc(-c2nc3ccc(Oc4ccccc4)cc3o2)cc1)c1cnc2nccn2c1 [Example 57, N-[[4-(6-phenoxy-1,3-benzoxazol-2-yl)phenyl]methyl]imidazo[1,2-a]pyrimidin-6-carboxamide] | > 1 µM |  |  |  |
| O=C(NCc1ccc(-c2nc3ccc(-c4ccccc4)cc3o2)cc1)c1cnc2nccn2c1 [Example 59, N-[[4-(6-phenyl-1,3-benzoxazol-2-yl)phenyl]methyl]imidazo[1,2-a]pyrimidin-6-carboxamide] | > 1 µM |  |  |  |
| O=C(NCc1ccc(-c2nc3ccc(Cl)nc3o2)cc1)c1cnc2nccn2c1 [Example 60, N-[[4-(5-chlorooxazolo[5,4-b]pyridin-2-yl)phenyl]methyl]imidazo[1,2-a]pyrimidin-6-carboxamide] | < 0.05 µM |  |  |  |
| O=C(NCc1ccc(-c2nc3ccc(Cl)cc3o2)cn1)c1cnc2nccn2c1 [Example 63, N-[[5-(6-chloro-1,3-benzoxazol-2-yl)-2-pyridyl]methyl]imidazo[1,2-a]pyrimidin-6-carboxamide] | < 0.05 µM |  |  |  |
| Cc1ccc2nc(-c3ccc(C(C)NC(=O)c4cnc5nccn5c4)cc3)oc2c1 (stereo not shown) [Example 64, N-[1-[4-(6-methyl-1,3-benzooxazol-2-yl)phenyl]ethyl]imidazo[1,2-a]pyrimidin-6-carboxamide] | > 1 µM |  |  |  |

More lines, main results first:

| IC50 (NamPT) | EC50 [1] | EC50 [2] | Compound | % TGI (Tumor Growth inhibition) [3] |
| --- | --- | --- | --- | --- |
|  | < 0.05 µM | > 101 µM | CC(C)c1ccc2nc(-c3ccc(CNC(=O)c4cnc5nccn5c4)cc3)oc2c1 [Example 3] |  |
| < 0.05 µM | < 0.05 µM | > 101 µM | Cc1ccc2oc(-c3ccc(CNC(=O)c4cnc5nccn5c4)cc3)nc2c1 [Example 6, N-[[4-(5-methyl-1,3-benzoxazol-2-yl)phenyl]methyl]imidazo[1,2-a]pyrimidin-6-carboxamide] |  |
| < 0.05 µM |  |  | Cc1cc2nc(-c3ccc(CNC(=O)c4cnc5nccn5c4)cc3)oc2cc1F [Example 11, N-[[4-(6-fluoro-5-methyl-1,3-benzoxazol-2-yl)phenyl]methyl]imidazo[1,2-a]pyrimidin-6-carboxamide] | 82% |
| 0.051 to 0.1 µM | 0.051 to 0.1 µM | > 101 µM | O=C(NCc1ccc(-c2nc3ccc(F)cc3o2)cc1)c1cnc2nccn2c1 [Example 17, N-[[4-(6-fluoro-1,3-benzoxazol-2-yl)phenyl]methyl]imidazo[1,2-a]pyrimidin-6-carboxamide] |  |
| < 0.05 µM | 0.051 to 0.1 µM | > 101 µM | O=C(NCc1ccc(-c2nc3ccc(C(F)(F)F)cc3o2)cc1)c1cnc2nccn2c1 [Example 19, N-[[4-[6-(trifluoromethyl)-1,3-benzoxazol-2-yl]phenyl]methyl]imidazo[1,2-a]pyrimidin-6-carboxamide] |  |
| < 0.05 µM | < 0.05 µM | > 101 µM | CCNC(=O)c1ccc2oc(-c3ccc(CNC(=O)c4cnc5nccn5c4)cc3)nc2c1 [Example 31, N-ethyl-2-[4-[(imidazo[1,2-a]pyrimidin-6-carbonxylamino)methyl]phenyl]-1,3-benzoxazol-5-carboxamide] |  |
| < 0.05 µM | < 0.05 µM | 10 to 100 µM | CN(C)C(=O)c1ccc2oc(-c3ccc(CNC(=O)c4cnc5nccn5c4)cc3)nc2c1 [Example 32, 2-[4-[(imidazo[1,2-a]pyrimidin-6-carbonylamino)methyl]phenyl]-N,N-dimethyl-1,3-benzoxazol-5-carboxamide] |  |
| < 0.05 µM |  |  | O=C(NCc1ccc(-c2nc3ccc(Oc4cccnc4)cc3o2)cc1)c1cnc2nccn2c1 [Example 58, N-[[4-[6-(3-pyridyloxy)-1,3-benzoxazol-2-yl]phenyl]methyl]imidazo[1,2-a]pyrimidin-6-carboxamide] |  |
| 0.11 to 1 µM |  |  | Cc1ccc2nc(-c3ccc(CNC(=O)c4ccc5nccn5c4)cc3)oc2c1 [Example 61, N-[[4-(6-methyl-1,3-benzoxazol-2-yl)phenyl]methyl]imidazo[1,2-a]pyridin-6-carboxamide] |  |
| 0.051 to 0.1 µM |  |  | O=C(NCc1ccc(-c2nc3cnc(Cl)cc3o2)cc1)c1cnc2nccn2c1 [Example 62] |  |
